Data as given in patent EP4582094A1, “ISCHEMIA-REPERFUSION INJURY INHIBITOR” (Tohoku University, priority 2022, dated 2024).

Legend:
[1] = Rat isogeneic lung transplantation: ischemia-reperfusion injury after lung preservation; type: in vivo, Lewis rats; conditions: lung preservation solution containing 300 µM GSSSG, six hours at 4°C, an hour after the reperfusion, vs control group
Description: In the GSSSG group (n=3), ET-TU solution containing GSSSG was used as the lung preservation solution. The GSSSG concentration was 300 µM, at which GSSSG could be mixed into EP-TU while maintaining pH 7 in a preliminary experiment. In the control group (n=3), ET-TU solution was used as it was as the lung preservation solution. As the rats, Lewis rats (male, 13-18 weeks, 275-350 g) were used both as the donors and the recipients.
The left lung of a donor was preserved for six hours at 4°C using the lung preservation solution (EP-TU) and transplanted into the left lung of a recipient rat. After reperfusion for an hour after the lung transplantation, the right pulmonary hilum (pulmonary artery and vein/bronchus) was blocked, and the degree of ischemia-reperfusion injury of the left lung was evaluated. As indicators for ischemia-reperfusion injury, the weight gain of the grafted lung (weight after transplantation - weight before transplantation) and the arterial oxygen tension (PaO2) after blocking the right pulmonary hilum were used.

[2] = Mouse lung ischemia-reperfusion injury (pulmonary hilum clamping): physiological and histopathological evaluation of pulmonary edema; type: in vivo, C57BL/6J mice
Description: GSSSG (MW 644) was dissolved in 0.1 M HCl to 25 mM GSSSG. Next, 20 µL of 25 mM GSSSG was added to 50 µL of 10x PBS and 430 µL of DW, and thus 500 µL of GSSSG solution (1 mM, 322 µg GSSSG) was adjusted in the end.
(§1) An intervention group (N = 4) in which 500 µL of the GSSSG solution was intraperitoneally administered to C57BL/6J mice (22 months old, male) an hour before pulmonary hilum clamping surgery and a control group (N = 4) in which 500 µL of normal saline solution (NSS) was intraperitoneally administered were set. The pulmonary hilum structure was clamped together for 60 minutes, and the IRI was evaluated an hour and a day after releasing clamping.
The wet to dry weight ratios were measured as physiological evaluation of pulmonary edema due to the IRI (N = 4 in each group).
The alveolar edema was scored, and the edema around the pulmonary arteries was quantified as histopathological evaluation of pulmonary edema due to the IRI (N = 6 in each group). The scoring was conducted according to the criteria below, and an average of 10 fields was calculated for each mouse. Regarding the edema around the pulmonary arteries, three to five pulmonary arteries per mouse were extracted, and an average of the area ratios of the pulmonary artery and the edema around the artery was calculated.
• 0 = no finding • 1 = finding in 1-25% • 2 = finding in 26-50% • 3 = finding in 51-75% • 4 = finding in 76-100%

IL10 = assay: RT-PCR gene expression of inflammatory cytokines in lung tissue after IRI; type: in vivo, C57BL/6J mice; conditions: lung tissue after the IRI; GSSSG administration group vs control; FIG. 2
Description: as §1
(§2) The inflammation due to the IRI was evaluated with gene expression of inflammatory cytokines in lung tissue. The wet to dry weight ratios were evaluated with N = 4 in each group, and the other items were evaluated with N = 5-6 in each group.

IL6 = assay: as above; type: in vivo, C57BL/6J mice; conditions: lung tissue after the IRI; GSSSG administration group vs control; FIG. 2
Description: as §1, §2

TNFα = assay: as above; type: in vivo, C57BL/6J mice; conditions: lung tissue after the IRI; GSSSG administration group vs control; FIG. 2
Description: as §1, §2

IL1b = assay: as above; type: in vivo, C57BL/6J mice; conditions: lung tissue after the IRI; GSSSG administration group vs control; FIG. 2
Description: as §1, §2

HeLa cells = assay: Mitochondrial membrane potential, JC-10 staining; type: cell-based; conditions: GSSSG added to medium at 1 µM, 10 µM and 100 µM; 24 hours; even at a low concentration; FIG. 3
Description: HeLa cells were cultured in DMEM (low glucose) medium containing 10% FBS, and GSSSG was added to the medium at different concentrations (1 µM, 10 µM and 100 µM). The cells were stained with JC-10, which is a reagent for detecting mitochondrial membrane potential, after 24 hours and observed with a confocal microscope, and the fluorescent intensities were measured with a plate reader.

Compound: N[C@@H](CCC(=O)N[C@@H](CSSSC[C@H](NC(=O)CC[C@H](N)C(=O)O)C(=O)NCC(=O)O)C(=O)NCC(=O)O)C(=O)O [GSSSG, glutathione trisulfide]
- arterial oxygen tension (PaO2) after blocking the right pulmonary hilum ([1]; FIG. 10A): improved
- weight gain of the grafted lung ([1]; FIG. 10B): decreased
- edema around the pulmonary arteries ([2]; 500 µL GSSSG solution (1 mM) intraperitoneally an hour before clamping, area ratio of pulmonary artery and edema around it, vs control group, FIG. 1c): relief of pulmonary edema was observed
- score of alveolar edema ([2]; 500 µL GSSSG solution (1 mM) intraperitoneally an hour before clamping, histopathological evaluation, vs control group, FIG. 1b): relief of pulmonary edema was observed
- wet to dry weight ratio ([2]; 500 µL GSSSG solution (1 mM, 322 µg) intraperitoneally an hour before 60 min pulmonary hilum clamping, 22 months old male mice, an hour and a day after the IRI, vs control group (NSS), FIG. 1a): decreased with a significance
- gene expression of IL10 (IL10): decreased with a significance
- gene expression of IL6 (IL6): decreased with a significance
- gene expression of TNFα (TNFα): no difference was observed
- gene expression of IL1b (IL1b): no difference was observed
- mitochondrial membrane potential (HeLa cells): increased with a significance
